Measurements reported in article PMC13372822 (The EMBO Journal, 2026).

Assays:
OXGR1 [1] = molecular target: T1, OXGR1 (Homo sapiens, UniProt Q96P68, L299P); test: Immunofluorescence assay of OXGR1 internalization; format: cell-based; conditions: 300 μM AKG, 0 or 30 min at 37°C
T1 construct: The full-length human OXGR1 and mutations were fused after the HA signal peptide and Flag tag; HA; expressed in transfected cells; host or cells: HEK293, transient
Method: (§1) Figure. R2 | Effect of L2997x50P mutant on activation and internalization of OXGR1. […]
(§2) responses. Responses were normalized to 100% for wild-type. Data are mean ± S.E.M. from three independent experiments (n = 3), with three technical replicates performed for each […]
(§3) experiment. […] HEK293 cells transiently […]
(§4) transfected with HA-tagged OXGR1 -WT or L299 7x50P mutant, were incubated with 300 μM […]
(§5) OXGR1 were stained with anti-HA (green). Cell nuclei were (1 picture or pasted object on this page, not shown here)

OXGR1 [2] = molecular target: OXGR1 (Homo sapiens, UniProt Q96P68); test: Immunofluorescence assay of OXGR1 internalization; format: cell-based; parameters: The full-length human OXGR1 and mutations were fused after the HA signal peptide and Flag tag; HA; expressed in transfected cells; host or cells: HEK293, transient; conditions: 300 μM AKG, 0 or 30 min at 37°C
Method: as §1, §2, §3, §4, §5

OXGR1 (Homo sapiens, UniProt Q96P68), sequence (Q96P68 whole entry, the tested form may be a part): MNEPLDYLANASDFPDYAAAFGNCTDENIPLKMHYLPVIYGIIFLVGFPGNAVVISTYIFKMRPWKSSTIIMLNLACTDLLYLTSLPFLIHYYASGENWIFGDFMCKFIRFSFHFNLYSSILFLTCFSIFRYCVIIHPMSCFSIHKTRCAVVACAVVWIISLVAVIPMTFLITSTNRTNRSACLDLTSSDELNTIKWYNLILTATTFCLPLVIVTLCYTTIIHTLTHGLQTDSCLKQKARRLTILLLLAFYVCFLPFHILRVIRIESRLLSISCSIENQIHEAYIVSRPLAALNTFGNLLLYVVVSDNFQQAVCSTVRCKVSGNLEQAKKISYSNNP
T1 sequence (Q96P68 whole entry L299P, the tested form may be a part): as the sequence (Q96P68 whole entry, the tested form may be a part) above, with L299P counted along it

## O=C(O)CCC(=O)C(=O)O [AKG, α-ketoglutarate]
OXGR1 [1]
  internalization of OXGR1 L299P mutant: remains at the plasma membrane
OXGR1 [2]
  internalization of WT-OXGR1: internalizes
